Experimental data published in patent US11524938B2, “Aromatic sulfonamide derivatives” (Bayer Pharma Aktiengesellschaft, priority 2016, dated 2022).
pIC50: −log10 of the molar value.

Target: T1, human P2X4 (Homo sapiens, UniProt Q99571)
T1 sequence (Q99571 1-388): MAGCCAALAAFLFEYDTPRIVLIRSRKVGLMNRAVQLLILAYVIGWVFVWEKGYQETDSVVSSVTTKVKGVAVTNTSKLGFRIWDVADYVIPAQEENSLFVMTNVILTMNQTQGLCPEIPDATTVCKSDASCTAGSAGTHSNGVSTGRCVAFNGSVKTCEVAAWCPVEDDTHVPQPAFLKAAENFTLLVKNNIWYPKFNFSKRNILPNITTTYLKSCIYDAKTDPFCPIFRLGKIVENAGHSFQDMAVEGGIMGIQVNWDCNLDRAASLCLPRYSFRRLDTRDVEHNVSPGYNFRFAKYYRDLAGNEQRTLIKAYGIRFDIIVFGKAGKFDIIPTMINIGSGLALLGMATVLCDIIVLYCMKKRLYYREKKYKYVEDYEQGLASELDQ
Test: Human P2X4 HEK Cell FLIPR Assay
Format: cell-based
Conditions: agonist Bz-ATP at EC80; for Emax: HEK293, HEK293 cells, percentage of maximal inhibition, read-out: Human P2X4 HEK Cells (FLIPR Assay) avg Efficacy [%]; for pIC50: HEK293 cells, individual values listed where some fall outside detection range
Outline: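 Calcium flux read by FLIPR for 120 sec after Bz-ATP challenge at EC80 (established each assay day), following 30 min room-temperature compound preincubation in dye-loaded stable human P2X4 HEK293 cells. Peak RFU over basal normalized to agonist control; IC50, maximal inhibition and Hill coefficient from triplicate means.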

Structure (SMILES) | Emax | pIC50
NS(=O)(=O)c1cc(NC(=O)Cc2c(F)cccc2Cl)ccc1-c1ccc(Cl)nc1 [Example 461, 2-(2-Chloro-6-fluorophenyl)-N-[4-(6-chloropyridin-3-yl)-3-sulfamoylphenyl]acetamide] | 93% | 6.86
Cc1ccc(F)c(CC(=O)Nc2ccc(-n3cc(Cl)cn3)c(S(N)(=O)=O)c2)c1Cl [Example 95, 2-(2-Chloro-6-fluoro-3-methylphenyl)-N-[4-(4-chloro-1H-pyrazol-1-yl)-3-sulfamoyl-phenyl]acetamide] | 87% | 7.27
NS(=O)(=O)c1cc(NC(=O)Cc2ccccc2Cl)ccc1-c1cc(C(F)(F)F)ccn1 [Example 318, 2-(2-Chlorophenyl)-N-{3-sulfamoyl-4-[4-(trifluoromethyl)pyridin-2-yl]phenyl}acetamide] | 43% | < 4.60
N#Cc1cnn(-c2ccc(NC(=O)Cc3ccc(Cl)cc3)cc2S(N)(=O)=O)c1 [Example 181, 2-(4-Chlorophenyl)-N-[4-(4-cyano-1H-pyrazol-1-yl)-3-sulfamoylphenyl]acetamide] | 59% | 6.75
Cc1cc(F)c(Br)cc1CC(=O)Nc1ccc(-n2cc(F)cn2)c(S(N)(=O)=O)c1 [Example 166, 2-(5-Bromo-4-fluoro-2-methylphenyl)-N-[4-(4-fluoro-1H-pyrazol-1-yl)-3-sulfamoylphenyl]acetamide] | 78% | 5.82
N#Cc1cnn(-c2ccc(NC(=O)Cc3cc(Cl)ccc3Cl)cc2S(N)(=O)=O)c1 [Example 211, N-[4-(4-Cyano-1H-pyrazol-1-yl)-3-sulfamoylphenyl]-2-(2,5-dichlorophenyl)acetamide] | 94% | 7.12
NS(=O)(=O)c1cc(NC(=O)Cc2ccccc2F)ccc1-c1cccnc1 [Example 338, 2-(2-Fluorophenyl)-N-[4-(pyridin-3-yl)-3-sulfamoylphenyl]acetamide] | 91% | 7.49
NS(=O)(=O)c1cc(NC(=O)Cc2ccccc2Cl)ccc1-c1ccsn1 [Example 419, 2-(2-Chlorophenyl)-N-[3-sulfamoyl-4-(1,2-thiazol-3-yl)phenyl]acetamide] | 89% | 6.56
Cc1ccc(CC(=O)Nc2ccc(-n3cc(Cl)cn3)c(S(N)(=O)=O)c2)cc1 [Example 172, N-[4-(4-Chloro-1H-pyrazol-1-yl)-3-sulfamoylphenyl]-2-(4-methylphenyl)acetamide] | 58% | 7.32
NS(=O)(=O)c1cc(NC(=O)Cc2ccccc2Cl)ccc1-c1cnc(OC2CCC2)nc1 [Example 316, 2-(2-Chlorophenyl)-N-{4-[2-(cyclobutyloxy)pyrimidin-5-yl]-3-sulfamoylphenyl}acetamide] | 86% | 6.44
CC(C)Oc1cnn(-c2ccc(NC(=O)Cc3ccccc3Cl)cc2S(N)(=O)=O)c1 [Example 27, 2-(2-Chlorophenyl)-N-[4-(4-isopropoxy-1H-pyrazol-1-yl)-3-sulfamoylphenyl]-acetamide] | 74% | 7.15
NS(=O)(=O)c1cc(NC(=O)Cc2c(F)cccc2Cl)ccc1-c1cnn(C2CC2)c1 [Example 333, 2-(2-Chloro-6-fluorophenyl)-N-[4-(1-cyclopropyl-1H-pyrazol-4-yl)-3-sulfamoylphenyl]acetamide] | 101% | 7.82
NS(=O)(=O)c1cc(NC(=O)Cc2ccc(C(F)F)cc2)ccc1-n1cc(Br)cn1 [Example 73, N-[4-(4-Bromo-1H-pyrazol-1-yl)-3-sulfamoylphenyl]-2-[4-(difluoromethyl)-phenyl]acetamide] | 52% | 6.77
NS(=O)(=O)c1cc(NC(=O)Cc2cc(F)ccc2Cl)ccc1-n1cc(Cl)cn1 [Example 98, 2-(2-Chloro-5-fluorophenyl)-N-[4-(4-chloro-1H-pyrazol-1-yl)-3-sulfamoylphenyl]-acetamide] | 77% | 6.91
NS(=O)(=O)c1cc(NC(=O)Cc2ccccc2Cl)cnc1-n1cc(Br)cn1 [Example 389, N-[6-(4-Bromo-1H-pyrazol-1-yl)-5-sulfamoylpyridin-3-yl]-2-(2-chlorophenyl)-acetamide] | 77% | 7.66
Cn1ccc(-c2ccc(NC(=O)Cc3ccccc3Cl)cc2S(N)(=O)=O)c1 [Example 529, 2-(2-Chlorophenyl)-N-[4-(1-methyl-1H-pyrrol-3-yl)-3-sulfamoylphenyl]acetamide] | 92% | 7.14

Structure (SMILES) | Emax | pIC50
Cc1ccc(CC(=O)Nc2ccc(-c3ccc(Cl)nc3)c(S(N)(=O)=O)c2)cc1 [Example 469, N-[4-(6-Chloropyridin-3-yl)-3-sulfamoylphenyl]-2-(4-methylphenyl)acetamide] | 90% | 6.34
NS(=O)(=O)c1cc(NC(=O)Cc2ccccc2Br)ccc1-n1cc(F)cn1 [Example 177, 2-(2-Bromophenyl)-N-[4-(4-fluoro-1H-pyrazol-1-yl)-3-sulfamoylphenyl]acetamide] | 83% | 7.46
NS(=O)(=O)c1cc(NC(=O)Cc2cc(C(F)(F)F)ccc2Cl)c(C(F)(F)F)cc1-n1cc(F)cn1 [Example 537, 2-[2-Chloro-5-(trifluoromethyl)phenyl]-N-[4-(4-fluoro-1H-pyrazol-1-yl)-5-sulfamoyl-2-(trifluoromethyl)phenyl]acetamide] | 95% | 5.44
NS(=O)(=O)c1cc(NC(=O)Cc2c(F)cccc2Cl)ccc1-n1cc(Cl)cn1 [Example 77, 2-(2-Chloro-6-fluorophenyl)-N-[4-(4-chloro-1H-pyrazol-1-yl)-3-sulfamoylphenyl]-acetamide] | 82% | 7.15
NS(=O)(=O)c1cc(NC(=O)Cc2cc(Cl)ccc2Cl)ccc1-n1cc(F)cn1 [Example 163, 2-(2,5-Dichlorophenyl)-N-[4-(4-fluoro-1H-pyrazol-1-yl)-3-sulfamoylphenyl]acetamide] | 89% | 7.03
N#Cc1ccc(Cl)c(CC(=O)Nc2ccc(-n3cc(C(F)(F)F)cn3)c(S(N)(=O)=O)c2)c1 [Example 243, 2-(2-Chloro-5-cyanophenyl)-N-{3-sulfamoyl-4-[4-(trifluoromethyl)-1H-pyrazol-1-yl]-phenyl}acetamide] | 87% | 6.30
N#Cc1csc(-c2ccc(NC(=O)Cc3ccccc3Cl)cc2S(N)(=O)=O)n1 [Example 428, 2-(2-Chlorophenyl)-N-[4-(4-cyano-1,3-thiazol-2-yl)-3-sulfamoylphenyl]acetamide] | 57% | 7.57
CN(C)c1ncn(-c2ccc(NC(=O)Cc3ccccc3Cl)cc2S(N)(=O)=O)n1 [Example 34, 2-(2-Chlorophenyl)-N-{4-[3-(dimethylamino)-1H-1,2,4-triazol-1-yl]-3-sulfamoyl-phenyl}acetamide] | 79% | 6.35
COc1cccc(Cl)c1CC(=O)Nc1ccc(-n2cc(Cl)cn2)c(S(N)(=O)=O)c1 [Example 105, 2-(2-Chloro-6-methoxyphenyl)-N-[4-(4-chloro-1H-pyrazol-1-yl)-3-sulfamoyl-phenyl]acetamide] | 101% | 6.97
NS(=O)(=O)c1cc(NC(=O)Cc2ccc(F)c(F)c2)ccc1-n1cc(F)cn1 [Example 145, 2-(3,4-Difluorophenyl)-N-[4-(4-fluoro-1H-pyrazol-1-yl)-3-sulfamoylphenyl]acetamide] | 49% | < 4.60
Cc1ccc(Cl)c(CC(=O)Nc2ccc(-n3cc(C(F)(F)F)cn3)c(S(N)(=O)=O)c2)c1 [Example 128, 2-(2-Chloro-5-methylphenyl)-N-{3-sulfamoyl-4-[4-(trifluoromethyl)-1H-pyrazol-1-yl]-phenyl}acetamide] | 91% | 6.97
NS(=O)(=O)c1cc(NC(=O)Cc2ccccc2Cl)ccc1-n1cc(-c2ccncn2)cn1 [Example 404, 2-(2-Chlorophenyl)-N-{4-[4-(pyrimidin-4-yl)-1H-pyrazol-1-yl]-3-sulfamoylphenyl}acetamide] | 73% | 6.76
Cc1ccc(CC(=O)Nc2ccc(-c3cncc(C(F)(F)F)c3)c(S(N)(=O)=O)c2)cc1 [Example 454, 2-(4-Methylphenyl)-N-{3-sulfamoyl-4-[5-(trifluoromethyl)pyridin-3-yl]phenyl}acetamide] | 58% | 5.84
N#Cc1cnn(-c2ncc(NC(=O)Cc3ccccc3F)cc2S(N)(=O)=O)c1 [Example 382, N-[6-(4-Cyano-1H-pyrazol-1-yl)-5-sulfamoylpyridin-3-yl]-2-(2-fluorophenyl)acetamide] | 87% | 6.50
NS(=O)(=O)c1cc(NC(=O)Cc2c(F)ccc(F)c2Cl)ccc1-n1cc(F)cn1 [Example 164, 2-(2-Chloro-3,6-difluorophenyl)-N-[4-(4-fluoro-1H-pyrazol-1-yl)-3-sulfamoylphenyl]-acetamide] | 83% | 7.57
NS(=O)(=O)c1cc(NC(=O)Cc2ccccc2Cl)ccc1-n1ccc(Cl)cc1=O [Example 2, N-[4-(4-Chloro-2-oxopyridin-1(2H)-yl)-3-sulfamoylphenyl]-2-(2-chlorophenyl)-acetamide] | 50% | 4.71
